The record followed here is ChEMBL document CHEMBL2021779, “Inhibition of hepatitis C virus NS5A by fluoro-olefin based γ-turn mimetics” (Bioorg Med Chem Lett, 2012).

As a reminder, the EC50 is the midpoint of the concentration-response curve. Read a low EC50 as a more potent agent.

The test system of assay [1] is Hepatitis C virus subtype 1a. Nature of the assay: Antiviral activity against Hepatitis C virus genotype 1A by whole cell replicon assay.
In assay [2] the test system is Hepatitis C virus. The assay is described as follows: Antiviral activity against Hepatitis C virus genotype 1B by whole cell replicon assay. It is filed as functional, organism-based, Hepacivirus hominis.
Assay [3] has as its system Hepatitis C virus. Nature of the assay: Antiviral activity against Hepatitis C virus genotype 2A by whole cell replicon assay. It is filed as functional, organism-based, Hepacivirus hominis.

For the compound `COC(=O)N[C@H](/C(F)=C(\C)[C@@H](C)c1ncc(-c2ccc(-c3ccc(-c4cnc([C@H](C)/C(C)=C(\F)[C@@H](NC(=O)OC)C(C)C)[nH]4)cc3)cc2)[nH]1)C(C)C`, the half-maximal effective concentration (EC50) was 659 nM in assay [1], 27.3 nM in assay [2] and 397 nM in assay [3].

Take `COC(=O)N[C@H](/C(F)=C1\CCC[C@H]1c1ncc(-c2ccc(-c3ccc(-c4cnc([C@@H]5CCC/C5=C(/F)[C@@H](NC(=O)OC)C(C)C)[nH]4)cc3)cc2)[nH]1)C(C)C`: the EC50 in assay [1] was determined as 189 nM; in assay [2], 0.079 nM; in assay [3], 167 nM.

Turning to `COC(=O)N[C@H](C(=O)N1CCC[C@H]1c1ncc(-c2ccc(-c3ccc(-c4cnc([C@@H]5CCCN5C(=O)[C@@H](NC(=O)OC)C(C)C)[nH]4)cc3)cc2)[nH]1)C(C)C`, the values for the EC50 in assay [2] and in assay [3] were […] and 0.063 nM, respectively.
